Test system: Ishikawa human endometrial tumor cells
Test: Ishikawa alkaline phosphatase assay
Assay type: cell-based
Settings: for EC50: Homo sapiens, Ishikawa; for EC50 / Agonist % Eff: agonist mode; for Agonist % Eff: % efficacy versus the response to Tamoxifen; for Antagonist % Eff: antagonist mode, % efficacy versus E2 (1 nM) alone
Description: Ishikawa Alkaline Phosphatase Assay
Ishikawa human endometrial tumor cells are maintained in MEM (minimum essential medium, with Earle's salts and L-Glutamine, Gibco BRL, Gaithersburg, Md.), supplemented with 10% fetal bovine serum (FBS) (V/V), (Gibco BRL). One day prior to assay, growth media is changed to assay medium, DMEM/F-12 (3:1) (Dulbecco's Modified Eagle Medium: Nutrient Mixture F-12, 3:1 Mixture, phenol red-free, Gibco BRL) supplemented with 5% dextran coated charcoal stripped fetal bovine serum (DCC-FBS) (Hyclone, Logen, Utah), L-Glutamine (2 mM), MEM sodium pyruvate (1 mM), HEPES (N-[2-hydroxyethyl]piperazine-N′-[2-ethanesulfonic acid] 2 mM) all from Gibco BRL). After an overnight incubation, ishikawa cells are rinsed with Dulbecco's Phosphate Buffered Saline (1×) (D-PBS) without Ca^+2 and Mg^+2 (Gibco BRL), and trypsinized by a 3 minute incubation with 0.25% Trypsin/EDTA, phenol red-free (Gibco BRL). Cells are resuspended in assay medium and adjusted to 250,000 cells/ml. Approximately 25,000 cells in a 100 ul media are added to flat-bottom 96 wells microculture plates (Costar 3596) and incubated at 37° C. in a 5% CO2 humidified incubator for 24 hours. The next day, serial dilutions of compounds are prepared in assay medium (at 6 times the final concentration in the assay). The assay is run in dual mode, agonist and antagonist modes. For the agonist mode, plates receive 25 μl/well of assay medium followed by 25 μl/well of diluted compounds (at 6× the final concentrations). For the antagonist mode, plates receive 25 μl/well of 6 nM E2 (β-Estradiol, Sigma, St. Louis, Mo.) followed by 25 μl/well of diluted compounds (at 6× the final concentrations). After an additional 48-hour incubation at 37° C. in a 5% CO2 humidified incubator, media is aspirated from wells and 100 μl fresh assay medium is added to each microculture. Serial dilutions of compounds are prepared and added to the cells as described above. After an additional 72 hour incubation at 37° C. in a 5% CO2 humidified incubator, the assay is quenched by removing media and rinsing plates twice in Dulbecco's Phosphate Buffered Saline (1×) (D-PBS) (Gibco BRL). The plates are dried for 5 min and frozen at −70° C. for at least 1 hour. The plates are then removed from the freezer and allowed to thaw at room temperature. To each well, 100 μl of 1-Step™ PNPP (Pierce Chemical Company, Rockford, Ill.) is added. After a 20-minute incubation, plates are read on a spectophotometer at 405 nm. The data is fitted to a linear interpolation to derive EC50 (for agonist mode) or IC50 (for antagonist mode) values. For the agonist mode, a % efficacy for each compound is calculated versus the response to Tamoxifen. For the antagonist mode, a % efficacy for each compound is calculated versus E2 (1 nM) alone.

SMILES	EC50 [nM]	Agonist % Eff [%]	Antagonist % Eff [%]
Oc1ccc(C2CCc3cc(O)ccc3N2c2ccc(OCCN3CCCC3)cc2)cc1 (stereo not drawn) [Example 4]	161	36	40
Oc1ccc(C2CCc3cc(O)ccc3N2c2ccc(OCCN3CCCCC3)cc2)cc1 (stereo not drawn) [Example 3]	262	117	−0.2

Reference: US6962928B2, “Tetrahydroquinoline derivatives for the inhibition of osteoporosis, estrogen dependent breast cancer, endometriosis and uterine fibrosis” (Eli Lilly and Company, priority 2001, dated 2005)
